One data set addresses T1, Human DPP-I (Homo sapiens, UniProt P53634).
T1 construct: purchased UniZyme A/S
The experiment in a line: Human dipeptidyl peptidase I (DPP-I) assay. Type of data set: biochemical. As to conditions: Gly-Phe-AFC substrate, pH 6.0, 37° C.; read-out: Primary enzymatic screening (IC50) DPP-I. As for the experimental part:
Human dipeptidyl Peptidase I (DPP-I) Assay
Using this assay, the IC50 value of a compound of the invention as a DPP-I inhibitor was determined using an AFC substrate.
100 mM sodium phosphate (8.9 g Na2HPO4; M=177.99), 150 mM KCl (5.6 g KCl; M=74.6) and 1.5 mM EDTA (279 mg EDTA; M=372.2) was dissolved in 500 mL H2O, and pH was adjusted to 6.0. Cysteine*HCl (Sigma C-1276; M=157.6), 1 mg/mL assay buffer, corresponding to 6 mM, was added to the solution for activation of the DPP-1 enzyme.
Gly-Phe-AFC*TFA (Enzyme Systems Products AFC-033) was used as the substrate for determination of IC50 values. Km was 270 μM. The substrate was solubilized in DMSO to give a 7.5 mM stock solution (2.2 mg of substrate was added to 0.5 mL DMSO).
Human DPP-I (hDDP-I; obtained from UniZyme A/S, DK-2970Hørsholm, Denmark) was stored at −20° C. in a buffer containing 2.5 mM Na-phosphate, 150 mM NaCl, 2 mM cysteamine, 50% glycerol, pH 7.0 at a concentration of 2.5 mg/mL. This stock solution was diluted 200 times in the assay buffer.
The assay was performed in 96-well plates. […] The excitation wavelength was 400 nm, and the emission was measured at 505 nm for 10 minutes at 37° C. […] In the software (SOFTmax Pro) used for data collection from the fluorometer (Molecular Devices: Gemini XS), it was ensured that the measured slopes were linear (R^2>0.99). […]

A further data set addresses T2, CYP2D6 (Homo sapiens, UniProt P10635).
T2 construct: purchased PanVera
The experiment in a line: CYP2D6 assay (Vivid CYP2D6 Cyan Screening Kit). Type of data set: in vitro ADME. Particulars: read-out: Metabolism: CYP enzymes (20 μM cutoff or IC50) CYP2D6. The protocol: (§1) Following the procedure for CYP1A2, using the appropriate kits below, the effect of a compound of the invention on the other CYP enzymes was determined:
Vivid® CYP2D6 Cyan Screening Kit from PanVera.

The target of the next data set is T3, CYP3A4 (Homo sapiens, UniProt P08684).
T3 construct: purchased PanVera
The experiment in a line: CYP3A4 assay (Vivid CYP3A4 Red Screening Kit). Particulars: read-out: Metabolism: CYP enzymes (20 μM cutoff or IC50) CYP3A4. Type of data set: in vitro ADME. As for the experimental part:
as §1
Vivid® CYP3A4 Red Screening Kit from PanVera.

Structures are written as SMILES.

T2 sequence (P10635 whole entry): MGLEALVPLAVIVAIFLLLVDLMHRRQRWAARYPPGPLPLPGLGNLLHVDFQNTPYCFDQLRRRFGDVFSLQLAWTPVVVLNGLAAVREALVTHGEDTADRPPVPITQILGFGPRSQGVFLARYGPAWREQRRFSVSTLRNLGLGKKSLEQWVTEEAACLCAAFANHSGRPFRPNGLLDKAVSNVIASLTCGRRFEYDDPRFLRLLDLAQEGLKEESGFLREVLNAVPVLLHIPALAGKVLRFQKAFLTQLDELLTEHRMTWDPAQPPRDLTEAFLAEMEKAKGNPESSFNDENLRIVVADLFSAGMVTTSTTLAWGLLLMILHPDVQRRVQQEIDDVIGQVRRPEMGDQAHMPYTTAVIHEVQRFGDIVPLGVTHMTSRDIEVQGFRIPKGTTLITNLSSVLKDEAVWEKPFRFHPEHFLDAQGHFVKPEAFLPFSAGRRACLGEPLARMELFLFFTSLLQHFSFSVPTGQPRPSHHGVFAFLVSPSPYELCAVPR
T1 sequence (P53634 231-394 limits assumed): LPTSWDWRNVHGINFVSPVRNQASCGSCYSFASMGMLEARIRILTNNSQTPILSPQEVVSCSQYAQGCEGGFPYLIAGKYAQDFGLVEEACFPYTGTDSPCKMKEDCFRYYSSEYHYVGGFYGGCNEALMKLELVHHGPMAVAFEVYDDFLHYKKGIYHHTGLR
T1 sequence (P53634 395-463 limits assumed): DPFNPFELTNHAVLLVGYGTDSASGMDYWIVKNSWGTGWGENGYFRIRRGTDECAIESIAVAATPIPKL
T1 sequence (P53634 25-143 limits assumed): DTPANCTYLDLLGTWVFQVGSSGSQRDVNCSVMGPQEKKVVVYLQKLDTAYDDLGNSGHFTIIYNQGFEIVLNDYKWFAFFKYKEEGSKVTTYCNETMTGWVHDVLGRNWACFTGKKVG
T3 sequence (P08684 2-503 limits assumed): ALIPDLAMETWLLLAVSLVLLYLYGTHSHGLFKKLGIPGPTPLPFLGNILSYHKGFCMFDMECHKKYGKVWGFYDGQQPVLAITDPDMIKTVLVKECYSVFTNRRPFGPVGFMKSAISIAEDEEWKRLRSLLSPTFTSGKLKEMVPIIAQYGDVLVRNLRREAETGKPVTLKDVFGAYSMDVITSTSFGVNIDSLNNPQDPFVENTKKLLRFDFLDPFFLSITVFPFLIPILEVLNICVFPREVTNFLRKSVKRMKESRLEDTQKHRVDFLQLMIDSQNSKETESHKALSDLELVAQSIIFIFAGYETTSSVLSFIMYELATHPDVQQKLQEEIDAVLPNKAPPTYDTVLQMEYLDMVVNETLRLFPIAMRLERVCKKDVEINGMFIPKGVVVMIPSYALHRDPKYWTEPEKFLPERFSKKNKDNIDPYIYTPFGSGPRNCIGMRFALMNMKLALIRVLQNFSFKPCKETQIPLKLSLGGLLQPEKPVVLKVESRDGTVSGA

`CC[C@H](N)C(=O)N[C@H](C#N)Cc1ccc(-c2ccccc2)cc1` [Example 5, (2S)—N-[(2S)-2-aminobutanoyl]-2-amino-3-(1,1′-biphenyl-4-yl)propionitrile]: the IC50 was found to be 0.013 ± 0.003 µM on Human DPP-I, 12.6 ± 0.677 µM on CYP2D6 and 3.6 ± 3.41 µM at CYP3A4.

The record behind these values is US20070099958A1, “Protease inhibitors” (ProZymex A/S, priority 2003, published 2007).
